pKi: −log10 of the molar value.
Assays:
Carbonic anhydrase 1 = Carbonic anhydrase 1 (Homo sapiens, UniProt P00915)
Carbonic anhydrase 2 = Carbonic anhydrase 2 (Homo sapiens, UniProt P00918)
Carbonic anhydrase 12 = Carbonic anhydrase 12 (Homo sapiens, UniProt O43570)
Carbonic anhydrase 14 = Carbonic anhydrase 14 (Homo sapiens, UniProt Q9ULX7)
Carbonic anhydrase 9 = Carbonic anhydrase 9 (Homo sapiens, UniProt Q16790)
[1] = Solubility of the compound in water; format: physicochemical

Sequence of Carbonic anhydrase 1 (P00915 whole entry): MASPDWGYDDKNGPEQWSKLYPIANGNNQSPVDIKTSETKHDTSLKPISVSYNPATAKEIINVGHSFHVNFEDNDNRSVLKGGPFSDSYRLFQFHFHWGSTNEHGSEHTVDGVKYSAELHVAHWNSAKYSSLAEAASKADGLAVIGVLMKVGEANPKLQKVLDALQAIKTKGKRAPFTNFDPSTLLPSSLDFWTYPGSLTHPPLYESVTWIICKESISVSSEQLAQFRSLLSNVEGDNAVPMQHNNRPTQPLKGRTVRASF
Sequence of Carbonic anhydrase 14 (Q9ULX7 whole entry): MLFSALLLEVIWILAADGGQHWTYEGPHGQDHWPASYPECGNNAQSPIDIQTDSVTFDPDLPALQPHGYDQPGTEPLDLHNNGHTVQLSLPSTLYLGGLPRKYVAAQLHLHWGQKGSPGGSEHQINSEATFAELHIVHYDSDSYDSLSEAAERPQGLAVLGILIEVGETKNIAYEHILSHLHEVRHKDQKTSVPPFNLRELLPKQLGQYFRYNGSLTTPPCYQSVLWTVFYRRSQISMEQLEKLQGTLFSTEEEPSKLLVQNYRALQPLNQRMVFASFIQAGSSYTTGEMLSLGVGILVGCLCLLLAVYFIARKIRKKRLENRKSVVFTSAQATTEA
Sequence of Carbonic anhydrase 12 (O43570 whole entry): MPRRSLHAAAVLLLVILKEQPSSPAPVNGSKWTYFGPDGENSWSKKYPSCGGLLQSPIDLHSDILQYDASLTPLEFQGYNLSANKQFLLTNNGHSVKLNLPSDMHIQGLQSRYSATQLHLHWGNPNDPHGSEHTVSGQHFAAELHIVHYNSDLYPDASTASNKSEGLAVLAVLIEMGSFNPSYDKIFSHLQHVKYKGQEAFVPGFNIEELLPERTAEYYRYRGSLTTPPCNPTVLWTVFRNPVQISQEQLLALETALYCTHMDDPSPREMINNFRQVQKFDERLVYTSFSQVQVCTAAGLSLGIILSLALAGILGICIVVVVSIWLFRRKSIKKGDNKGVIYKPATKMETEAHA

Row | Compound | pKi (Carbonic anhydrase 1) | pKi (Carbonic anhydrase 2) | pKi (Carbonic anhydrase 12) | pKi (Carbonic anhydrase 14) | pKi (Carbonic anhydrase 9) | solubility [1] [mg/mL]
1 | CC(=O)OC[C@H]1O[C@@H](NC(=S)Nc2ccc(S(N)(=O)=O)cc2)[C@H](OC(C)=O)[C@@H](OC(C)=O)[C@@H]1OC(C)=O | 5.31 | 8.15 | 8.14 | 8.08 |  | 
2 | CC(=O)OC[C@H]1O[C@@H](NC(=S)NCc2ccc(S(N)(=O)=O)cc2)[C@H](OC(C)=O)[C@@H](OC(C)=O)[C@@H]1OC(C)=O | 7.00 | 8.11 | 8.12 | 8.07 |  | 
3 | CC(=O)OC[C@H]1O[C@@H](NC(=S)NCCc2ccc(S(N)(=O)=O)cc2)[C@H](OC(C)=O)[C@@H](OC(C)=O)[C@@H]1OC(C)=O | 5.26 | 8.14 | 8.05 | 8.06 | 6.35 | 
4 | CC(=O)OC[C@H]1O[C@@H](NC(=S)NNC(=O)c2ccc(S(N)(=O)=O)cc2)[C@H](OC(C)=O)[C@@H](OC(C)=O)[C@@H]1OC(C)=O | 5.42 | 8.00 | 8.14 | 7.99 | 8.06 | 
5 | CC(=O)OC[C@H]1O[C@@H](NC(=S)Nc2ccc(S(N)(=O)=O)cc2)[C@H](OC(C)=O)[C@@H](OC(C)=O)[C@H]1OC(C)=O | 5.17 | 6.28 | 7.34 | 6.90 |  | 
6 | CC(=O)OC[C@H]1O[C@@H](NC(=S)NCc2ccc(S(N)(=O)=O)cc2)[C@H](OC(C)=O)[C@@H](OC(C)=O)[C@H]1OC(C)=O | 5.20 | 7.92 | 7.00 | 6.09 |  | 
7 | CC(=O)OC[C@H]1O[C@@H](NC(=S)NCCc2ccc(S(N)(=O)=O)cc2)[C@H](OC(C)=O)[C@@H](OC(C)=O)[C@H]1OC(C)=O | 7.00 | 6.53 | 8.06 | 8.06 | 6.36 | 
8 | CC(=O)OC[C@H]1O[C@@H](NC(=S)NNC(=O)c2ccc(S(N)(=O)=O)cc2)[C@H](OC(C)=O)[C@@H](OC(C)=O)[C@H]1OC(C)=O | 5.19 | 8.07 | 8.11 | 7.97 | 8.48 | 
9 | CC(=O)OC[C@H]1O[C@@H](NC(=S)Nc2ccc(S(N)(=O)=O)cc2)[C@H](OC(C)=O)[C@@H](OC(C)=O)[C@@H]1O[C@H]1O[C@H](COC(C)=O)[C@@H](OC(C)=O)[C@H](OC(C)=O)[C@H]1OC(C)=O | 5.22 | 6.27 | 8.00 | 8.10 |  | 
10 | CC(=O)OC[C@H]1O[C@@H](NC(=S)NCc2ccc(S(N)(=O)=O)cc2)[C@H](OC(C)=O)[C@@H](OC(C)=O)[C@@H]1O[C@H]1O[C@H](COC(C)=O)[C@@H](OC(C)=O)[C@H](OC(C)=O)[C@H]1OC(C)=O | 5.34 | 8.14 | 8.08 | 8.07 |  | 
11 | CC(=O)OC[C@H]1O[C@@H](NC(=S)NCCc2ccc(S(N)(=O)=O)cc2)[C@H](OC(C)=O)[C@@H](OC(C)=O)[C@@H]1O[C@H]1O[C@H](COC(C)=O)[C@@H](OC(C)=O)[C@H](OC(C)=O)[C@H]1OC(C)=O | 5.43 | 8.01 | 8.08 | 8.06 | 6.91 | 
12 | CC(=O)OC[C@H]1O[C@@H](NC(=S)NNC(=O)c2ccc(S(N)(=O)=O)cc2)[C@H](OC(C)=O)[C@@H](OC(C)=O)[C@@H]1O[C@H]1O[C@H](COC(C)=O)[C@@H](OC(C)=O)[C@H](OC(C)=O)[C@H]1OC(C)=O | 5.53 | 7.99 | 8.12 | 7.98 |  | 
13 | CC(=O)OC[C@H]1O[C@@H](O[C@H]2[C@H](OC(C)=O)[C@@H](OC(C)=O)[C@H](NC(=S)Nc3ccc(S(N)(=O)=O)cc3)O[C@@H]2COC(C)=O)[C@H](OC(C)=O)[C@@H](OC(C)=O)[C@H]1OC(C)=O | 7.00 | 8.12 | 8.09 | 8.07 |  | 
14 | CC(=O)OC[C@H]1O[C@@H](O[C@H]2[C@H](OC(C)=O)[C@@H](OC(C)=O)[C@H](NC(=S)NCc3ccc(S(N)(=O)=O)cc3)O[C@@H]2COC(C)=O)[C@H](OC(C)=O)[C@@H](OC(C)=O)[C@H]1OC(C)=O | 6.96 | 6.41 | 8.13 | 8.07 |  | 
15 | CC(=O)OC[C@H]1O[C@@H](O[C@H]2[C@H](OC(C)=O)[C@@H](OC(C)=O)[C@H](NC(=S)NCCc3ccc(S(N)(=O)=O)cc3)O[C@@H]2COC(C)=O)[C@H](OC(C)=O)[C@@H](OC(C)=O)[C@H]1OC(C)=O | 5.42 | 8.06 | 7.32 | 8.04 | 6.44 | 
16 | CC(=O)OC[C@H]1O[C@@H](O[C@H]2[C@H](OC(C)=O)[C@@H](OC(C)=O)[C@H](NC(=S)NNC(=O)c3ccc(S(N)(=O)=O)cc3)O[C@@H]2COC(C)=O)[C@H](OC(C)=O)[C@@H](OC(C)=O)[C@H]1OC(C)=O | 5.23 | 8.19 | 8.09 | 7.97 |  | 

Row | Compound | pKi (Carbonic anhydrase 1) | pKi (Carbonic anhydrase 2) | pKi (Carbonic anhydrase 12) | pKi (Carbonic anhydrase 14) | pKi (Carbonic anhydrase 9) | solubility [1] [mg/mL]
17 | NS(=O)(=O)c1ccc(NC(=S)N[C@@H]2O[C@H](CO)[C@@H](O)[C@H](O)[C@H]2O)cc1 | 5.11 | 8.15 | 8.09 | 7.39 | 6.55 | > 20
18 | NS(=O)(=O)c1ccc(CNC(=S)N[C@@H]2O[C@H](CO)[C@@H](O)[C@H](O)[C@H]2O)cc1 | 5.12 | 6.42 | 8.09 | 7.80 |  | > 20
19 | NS(=O)(=O)c1ccc(CCNC(=S)N[C@@H]2O[C@H](CO)[C@@H](O)[C@H](O)[C@H]2O)cc1 | 8.05 | 6.97 | 8.01 | 8.10 | 8.06 | > 20
20 | NS(=O)(=O)c1ccc(C(=O)NNC(=S)N[C@@H]2O[C@H](CO)[C@@H](O)[C@H](O)[C@H]2O)cc1 | 5.10 | 6.28 | 8.07 | 8.10 |  | > 20
21 | NS(=O)(=O)c1ccc(NC(=S)N[C@@H]2O[C@H](CO)[C@H](O)[C@H](O)[C@H]2O)cc1 | 5.16 | 6.65 | 7.70 | 6.90 |  | > 20
22 | NS(=O)(=O)c1ccc(CNC(=S)N[C@@H]2O[C@H](CO)[C@H](O)[C@H](O)[C@H]2O)cc1 | 5.19 | 7.22 | 6.95 | 6.89 | 8.16 | > 20
23 | NS(=O)(=O)c1ccc(CCNC(=S)N[C@@H]2O[C@H](CO)[C@H](O)[C@H](O)[C@H]2O)cc1 | 5.24 | 8.03 | 7.99 | 6.97 | 8.55 | > 20
24 | NS(=O)(=O)c1ccc(C(=O)NNC(=S)N[C@@H]2O[C@H](CO)[C@H](O)[C@H](O)[C@H]2O)cc1 | 5.39 | 6.46 | 8.07 | 8.09 |  | > 20
25 | NS(=O)(=O)c1ccc(NC(=S)N[C@@H]2O[C@H](CO)[C@@H](O[C@H]3O[C@H](CO)[C@@H](O)[C@H](O)[C@H]3O)[C@H](O)[C@H]2O)cc1 | 5.10 | 8.12 | 6.52 | 8.01 | 8.08 | > 20
26 | NS(=O)(=O)c1ccc(CNC(=S)N[C@@H]2O[C@H](CO)[C@@H](O[C@H]3O[C@H](CO)[C@@H](O)[C@H](O)[C@H]3O)[C@H](O)[C@H]2O)cc1 | 5.20 | 6.42 | 7.90 | 8.07 | 8.08 | > 20
27 | NS(=O)(=O)c1ccc(CCNC(=S)N[C@@H]2O[C@H](CO)[C@@H](O[C@H]3O[C@H](CO)[C@@H](O)[C@H](O)[C@H]3O)[C@H](O)[C@H]2O)cc1 | 5.37 | 6.57 | 8.01 | 8.11 | 8.68 | > 20
28 | NS(=O)(=O)c1ccc(C(=O)NNC(=S)N[C@@H]2O[C@H](CO)[C@@H](O[C@H]3O[C@H](CO)[C@@H](O)[C@H](O)[C@H]3O)[C@H](O)[C@H]2O)cc1 |  | 6.96 | 8.09 | 8.07 |  | > 20
29 | NS(=O)(=O)c1ccc(NC(=S)N[C@@H]2O[C@H](CO)[C@@H](O[C@@H]3O[C@H](CO)[C@H](O)[C@H](O)[C@H]3O)[C@H](O)[C@H]2O)cc1 | 5.10 | 8.16 | 7.09 | 7.26 | 6.59 | > 20
30 | NS(=O)(=O)c1ccc(CNC(=S)N[C@@H]2O[C@H](CO)[C@@H](O[C@@H]3O[C@H](CO)[C@H](O)[C@H](O)[C@H]3O)[C@H](O)[C@H]2O)cc1 | 5.39 | 6.98 | 8.10 | 7.36 | 8.08 | > 20
31 | NS(=O)(=O)c1ccc(CCNC(=S)N[C@@H]2O[C@H](CO)[C@@H](O[C@@H]3O[C@H](CO)[C@H](O)[C@H](O)[C@H]3O)[C@H](O)[C@H]2O)cc1 | 7.00 | 8.05 | 7.87 | 8.08 | 8.05 | > 20
32 | NS(=O)(=O)c1ccc(C(=O)NNC(=S)N[C@@H]2O[C@H](CO)[C@@H](O[C@@H]3O[C@H](CO)[C@H](O)[C@H](O)[C@H]3O)[C@H](O)[C@H]2O)cc1 |  | 8.13 | 8.06 | 8.07 |  | > 20

— ChEMBL document CHEMBL1955849, “Design and synthesis of thiourea compounds that inhibit transmembrane anchored carbonic anhydrases” (Bioorg Med Chem, 2012)
